# Experimental data published in publication PMC6981960 (2019).
# Tests used:
# [1] = tested on: NP7 (DNA, aptamer) ATGCGGATCCCGCGCGGCCGGCCAGTGCGCGAAGCTTGCGC; test: AuNP colorimetric aggregation assay; details: NaCl added to aggregate AuNPs (10 μL, printed 850 nM), aptamer 4 μM
# [2] = tested on: NP7 (DNA, aptamer) ATGCGGATCCCGCGCGGCCGGCCAGTGCGCGAAGCTTGCGC; test: circular dichroism; details: 137 mM NaCl, 2.7 mM KCl; PBS pH 7.4, 25 °C; aptamer 2 μM; 4-n-NP 0, 100, 1000 nM; qualitative change near 250 nm
smiles,measurement,setting,value
Oc1ccccc1,binding,[1]; phenol same amount as nonylphenol (200 nM stated),no
CC1(C)S[C@@H]2[C@H](NC(=O)Cc3ccccc3)C(=O)N2[C@H]1C(=O)O,binding,[1]; penicillin G same amount as nonylphenol (200 nM stated),no
CC(C)(c1ccc(O)cc1)c1ccc(O)cc1,binding,[1]; bisphenol A same amount as nonylphenol (200 nM stated),weak
CCCCCCCCCc1ccc(O)cc1,binding,[2],yes
CCCCC(CC)COC(=O)c1ccccc1C(=O)OCC(CC)CCCC (centres unmarked),binding,[1]; DEHP same amount as nonylphenol (200 nM stated),no
